# Values joined by “and” are separate entries in the source; they are usually repeats but may differ in a detail not shown here. Equal values may be shown once. ± gives the expanded uncertainty stated by the source.
# Assays:
# [1] = refractive index (Na D-line) (dimensionless); settings: 101.33 kPa, Liquid, Standard Abbe refractometry
# [2] = 101 kPa, Liquid; for viscosity: Capillary tube (Ostwald / Ubbelohde) method; for mass density: Vibrating tube method
# [3] = refractive index (Na D-line) (dimensionless); xn = mol fraction of the nth substance listed; settings: 101 kPa, Liquid, Standard Abbe refractometry
# [4] = xn = mol fraction of the nth substance listed; settings: 101 kPa, Liquid; for viscosity: Capillary tube (Ostwald / Ubbelohde) method; for mass density: Vibrating tube method
Structure (SMILES),refractive index ([1]; 293.15 K),refractive index ([1]; 298.15 K),refractive index ([1]; 303.15 K),refractive index ([1]; 308.15 K),viscosity ([2]; 293.15 K),mass density ([2]; 293.15 K),viscosity ([2]; 298.15 K),mass density ([2]; 298.15 K),viscosity ([2]; 303.15 K),mass density ([2]; 303.15 K),viscosity ([2]; 308.15 K),mass density ([2]; 308.15 K),"refractive index ([3]; 293.15 K, x1 = 1)","refractive index ([3]; 298.15 K, x1 = 1)","refractive index ([3]; 303.15 K, x1 = 1)","refractive index ([3]; 308.15 K, x1 = 1)","viscosity ([4]; 293.15 K, x1 = 1)","mass density ([4]; 293.15 K, x1 = 1)","viscosity ([4]; 298.15 K, x1 = 1)","mass density ([4]; 298.15 K, x1 = 1)",also measured
CCCCCC(C)O (stereo unspecified) [2-heptanol],1.4206 ± 0.0021,1.4188 ± 0.0021,1.4165 ± 0.0021,1.4143 ± 0.0021,6.52 ± 0.072 mPa·s,817.18 ± 0.3 kg/m3,5.33 ± 0.063 mPa·s,813.33 ± 0.3 kg/m3,4.301 ± 0.052 mPa·s,809.44 ± 0.31 kg/m3,3.528 ± 0.044 mPa·s,805.5 ± 0.31 kg/m3,–,–,–,–,–,–,–,–,–
CCCCC(C)O (stereo unspecified) [2-hexanol],1.4135 ± 0.0021,1.4116 ± 0.0021,1.4093 ± 0.0021,1.4077 ± 0.0021,5.155 ± 0.061 mPa·s,814.08 ± 0.3 kg/m3,4.1 ± 0.05 mPa·s,810.14 ± 0.31 kg/m3,3.41 ± 0.04 mPa·s,806.13 ± 0.31 kg/m3,2.819 ± 0.034 mPa·s,802.06 ± 0.31 kg/m3,–,–,–,–,–,–,–,–,–
CC#N [acetonitrile],1.3436 ± 0.0021,1.3411 ± 0.0021,1.339 ± 0.0021,1.3371 ± 0.0021,0.3542 ± 0.004 mPa·s,782.04 ± 0.31 kg/m3,0.3369 ± 0.0038 mPa·s and 0.336 ± 0.004 mPa·s,776.64 ± 0.31 kg/m3,0.3254 ± 0.0037 mPa·s and 0.325 ± 0.004 mPa·s,771.21 ± 0.31 kg/m3,0.3082 ± 0.0036 mPa·s and 0.308 ± 0.004 mPa·s,765.75 ± 0.31 kg/m3,–,–,–,–,–,–,–,–,–
CC#N [acetonitrile] + CCC(C)O,–,–,–,–,–,–,–,–,–,–,–,–,1.3436 ± 0.0021,1.3411 ± 0.0021,1.339 ± 0.0021,1.3371 ± 0.0021,0.3542 ± 0.004 mPa·s,782.04 ± 0.31 kg/m3,0.3369 ± 0.0038 mPa·s,776.64 ± 0.31 kg/m3,"viscosity ([4]; 303.15 K, x1 = 1): 0.3254 ± 0.0037 mPa·s; mass density ([4]; 303.15 K, x1 = 1): 771.21 ± 0.31 kg/m3; viscosity ([4]; 308.15 K, x1 = 1): 0.3082 ± 0.0036 mPa·s; mass density ([4]; 308.15 K, x1 = 1): 765.75 ± 0.31 kg/m3"
CC#N [acetonitrile] + CCCC(C)O,–,–,–,–,–,–,–,–,–,–,–,–,1.3436 ± 0.0021,1.3411 ± 0.0021,1.339 ± 0.0021,1.3371 ± 0.0021,0.3542 ± 0.071 mPa·s,782.04 ± 0.31 kg/m3,0.3369 ± 0.067 mPa·s,776.64 ± 0.31 kg/m3,"viscosity ([4]; 303.15 K, x1 = 1): 0.3254 ± 0.065 mPa·s; mass density ([4]; 303.15 K, x1 = 1): 771.21 ± 0.31 kg/m3; viscosity ([4]; 308.15 K, x1 = 1): 0.3082 ± 0.062 mPa·s; mass density ([4]; 308.15 K, x1 = 1): 765.75 ± 0.31 kg/m3"
CC#N [acetonitrile] + CCCCC(C)O,–,–,–,–,–,–,–,–,–,–,–,–,1.3436 ± 0.0021,1.3411 ± 0.0021,1.339 ± 0.0021,1.3371 ± 0.0021,0.3542 ± 0.004 mPa·s,782.04 ± 0.31 kg/m3,0.336 ± 0.004 mPa·s,776.64 ± 0.31 kg/m3,"viscosity ([4]; 303.15 K, x1 = 1): 0.325 ± 0.004 mPa·s; mass density ([4]; 303.15 K, x1 = 1): 771.21 ± 0.31 kg/m3; viscosity ([4]; 308.15 K, x1 = 1): 0.308 ± 0.004 mPa·s; mass density ([4]; 308.15 K, x1 = 1): 765.75 ± 0.31 kg/m3"
CC#N [acetonitrile] + CCCCCC(C)O,–,–,–,–,–,–,–,–,–,–,–,–,1.3436 ± 0.0021,1.3411 ± 0.0021,1.339 ± 0.0021,1.3371 ± 0.0021,0.3542 ± 0.036 mPa·s,782.04 ± 0.31 kg/m3,0.3369 ± 0.034 mPa·s,776.64 ± 0.31 kg/m3,"viscosity ([4]; 303.15 K, x1 = 1): 0.3254 ± 0.033 mPa·s; mass density ([4]; 303.15 K, x1 = 1): 771.21 ± 0.31 kg/m3; viscosity ([4]; 308.15 K, x1 = 1): 0.3082 ± 0.031 mPa·s; mass density ([4]; 308.15 K, x1 = 1): 765.75 ± 0.31 kg/m3"
CCC(C)O (stereo unspecified) [butan-2-ol],1.3966 ± 0.0021,1.3946 ± 0.0021,1.3924 ± 0.0021,1.3905 ± 0.0021,3.912 ± 0.046 mPa·s,806.57 ± 0.31 kg/m3,3.132 ± 0.039 mPa·s,802.56 ± 0.31 kg/m3,2.534 ± 0.029 mPa·s,798.26 ± 0.31 kg/m3,2.172 ± 0.024 mPa·s,793.96 ± 0.31 kg/m3,–,–,–,–,–,–,–,–,–
CCCC(C)O (stereo unspecified) [pentan-2-ol],1.406 ± 0.0021,1.4045 ± 0.0039,–,–,4.298 ± 0.05 mPa·s,809.29 ± 0.31 kg/m3,3.478 ± 0.059 mPa·s,805.24 ± 0.34 kg/m3,–,–,–,–,–,–,–,–,–,–,–,–,–
CC(C)O [propan-2-ol],1.3766 ± 0.0021,1.3745 ± 0.0021,1.3724 ± 0.0021,1.3703 ± 0.0021,2.351 ± 0.024 mPa·s,785.19 ± 0.31 kg/m3,2.044 ± 0.022 mPa·s,780.98 ± 0.31 kg/m3,1.758 ± 0.019 mPa·s,776.71 ± 0.31 kg/m3,1.532 ± 0.017 mPa·s,772.36 ± 0.31 kg/m3,–,–,–,–,–,–,–,–,–
CC(C)O [propan-2-ol] + CC#N,–,–,–,–,–,–,–,–,–,–,–,–,–,–,–,–,–,–,–,–,"refractive index ([3]; 293.15 K, x2 = 0): 1.3766 ± 0.0021; refractive index ([3]; 298.15 K, x2 = 0): 1.3745 ± 0.0021; refractive index ([3]; 303.15 K, x2 = 0): 1.3724 ± 0.0021; refractive index ([3]; 308.15 K, x2 = 0): 1.3703 ± 0.0021; viscosity ([4]; 293.15 K, x2 = 0): 2.351 ± 0.024 mPa·s; mass density ([4]; 293.15 K, x2 = 0): 785.19 ± 0.31 kg/m3; viscosity ([4]; 298.15 K, x2 = 0): 2.044 ± 0.022 mPa·s; mass density ([4]; 298.15 K, x2 = 0): 780.98 ± 0.31 kg/m3; viscosity ([4]; 303.15 K, x2 = 0): 1.758 ± 0.019 mPa·s; mass density ([4]; 303.15 K, x2 = 0): 776.71 ± 0.31 kg/m3; viscosity ([4]; 308.15 K, x2 = 0): 1.532 ± 0.017 mPa·s; mass density ([4]; 308.15 K, x2 = 0): 772.36 ± 0.31 kg/m3"
